Results: BindingDB's records for doi:10.7270/Q2125R3Z (Burnham Center For Chemical Genomics, 2010)

Biological target: Delta-type opioid receptor (Homo sapiens, UniProt P41143)
Assay: DOR agonists, SAR follow-up, image-based (AID 2370)

Sequence of Delta-type opioid receptor (P41143 whole entry): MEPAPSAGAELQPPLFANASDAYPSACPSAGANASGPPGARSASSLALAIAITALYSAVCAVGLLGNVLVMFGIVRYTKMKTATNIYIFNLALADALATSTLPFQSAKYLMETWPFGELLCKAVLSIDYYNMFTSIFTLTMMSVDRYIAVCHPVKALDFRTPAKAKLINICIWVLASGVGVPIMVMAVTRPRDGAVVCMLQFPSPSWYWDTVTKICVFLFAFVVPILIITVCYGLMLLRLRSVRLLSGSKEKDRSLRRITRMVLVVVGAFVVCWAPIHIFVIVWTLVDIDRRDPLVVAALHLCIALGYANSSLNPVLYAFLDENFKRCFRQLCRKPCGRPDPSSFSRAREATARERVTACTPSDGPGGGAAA

| EC50 [µM] | SMILES |
| --- | --- |
| 30.7 | CCC(N=Nc1ccnc2cc(Cl)ccc12)c1ccc(O)cc1 (configuration not stated) [4-[1-[2-(7-chloroquinolin-4-yl)hydrazinyl]propylidene]cyclohexa-2,5-dien-1-one] |
| > 32 | Oc1ccc(CN=Nc2ccnc3cc(Cl)ccc23)cc1O [(4Z)-4-[[2-(7-chloroquinolin-4-yl)hydrazinyl]methylidene]-2-hydroxycyclohexa-2,5-dien-1-one] |
